Measured values reported in US20180000136A1, “BIOLOGICAL INORGANIC COMPOUND COMPLEX HAVING REDUCED OXYGEN AND HIGH REDUCING ABILITY” (priority 2011, published 2018).

Assays:
[1] = target: LPO-H2O2 reaction (Bos taurus, UniProt P80025); assay: Compound II formation from the peroxidase-H2O2 reaction (OD 430 nm); format: biochemical; settings: KI at 1 μM
Excerpt: Compound II, however, is relatively stable and can be measured at OD of 430 nm. The compound II level is well maintained after mixing LPO and H2O2 (Referring to FIG. 28). […] Since the compound II is derived from the compound I, the inhibition of compound I is also understandable.

[2] = medication of Graves' disease; Non-patent documents 1 and 2; cited from earlier work
[3] = Degradation of H2O2 in a cell-free system (Amplex red); format: biochemical; settings: 20 μM H2O2, 30 min at 37° C.
Protocol: Then, Amplex red (Invitrogen) is added and incubated for 30 min in a dark room. The absorbance at 560 nm is measured by a microplate reader (Molecular Devices, Sunnyvale, Calif.).

| Structure (SMILES) | compound II formation [1] | side-effects [2] | degradation of H2O2 [3] |
| --- | --- | --- | --- |
| [I-].[K+] [KI] | partially inhibits |  |  |
| Cn1cc[nH]c1=S [MMI, methimazole] |  | an allergic reaction, an increase of a variety of enzyme levels in liver, a joint pain and an agranulocytosis in case of a severe condition | can degrade H2O2 although higher concentration of MMI is required |
| CCCc1cc(=O)[nH]c(=S)[nH]1 [PTU, propylthiouracil] |  | severe liver damage |  |
